# Article PMC3386246 (PLoS Pathogens, 2012)
# Biological target: T1, NtrC D54E (Escherichia coli, UniProt P0AFB8, D54E)
# T1 construct: gene glnG
# Test: biochemical
# Conditions: read-out: % inhibition at 250 μM
# T1 sequence (P0AFB8 whole entry D54E): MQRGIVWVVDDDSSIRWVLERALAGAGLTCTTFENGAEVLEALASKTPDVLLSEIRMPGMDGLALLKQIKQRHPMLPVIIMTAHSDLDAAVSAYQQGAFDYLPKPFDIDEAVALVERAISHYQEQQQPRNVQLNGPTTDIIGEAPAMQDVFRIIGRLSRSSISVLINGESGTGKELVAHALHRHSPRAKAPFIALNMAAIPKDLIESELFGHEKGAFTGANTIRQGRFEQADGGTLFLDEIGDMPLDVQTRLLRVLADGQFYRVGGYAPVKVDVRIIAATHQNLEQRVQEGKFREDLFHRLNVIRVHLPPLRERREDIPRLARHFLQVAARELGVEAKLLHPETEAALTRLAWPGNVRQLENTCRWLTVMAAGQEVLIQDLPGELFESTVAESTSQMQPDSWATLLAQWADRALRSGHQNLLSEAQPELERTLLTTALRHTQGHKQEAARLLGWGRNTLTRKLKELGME
row,Compound,inhibition at 250 µM [%]
1,CC(C)COC(=O)CSc1n[nH]c(=O)[nH]c1=O [compound 11],~10
2,CC(C)(C)COC(=O)CSc1n[nH]c(=O)[nH]c1=O [compound 12],~10
